According to ChEMBL document CHEMBL3774325, “Design, synthesis, and structure-activity relationship study of glycyrrhetinic acid derivatives as potent and selective inhibitors against human carboxylesterase 2” (Eur J Med Chem, 2016):

Legend:
Liver carboxylesterase 1 = target: T1, Liver carboxylesterase 1 (Homo sapiens, UniProt P23141); experiment: Inhibition of CE1 in human liver microsomes using 2-(2-Benzoyl-3-methoxyphenyl) benzothiazole as substrate preincubated for 10 mins followed by substrate addition measured after 30 mins by LC-UV analysis
T1 sequence (P23141 whole entry): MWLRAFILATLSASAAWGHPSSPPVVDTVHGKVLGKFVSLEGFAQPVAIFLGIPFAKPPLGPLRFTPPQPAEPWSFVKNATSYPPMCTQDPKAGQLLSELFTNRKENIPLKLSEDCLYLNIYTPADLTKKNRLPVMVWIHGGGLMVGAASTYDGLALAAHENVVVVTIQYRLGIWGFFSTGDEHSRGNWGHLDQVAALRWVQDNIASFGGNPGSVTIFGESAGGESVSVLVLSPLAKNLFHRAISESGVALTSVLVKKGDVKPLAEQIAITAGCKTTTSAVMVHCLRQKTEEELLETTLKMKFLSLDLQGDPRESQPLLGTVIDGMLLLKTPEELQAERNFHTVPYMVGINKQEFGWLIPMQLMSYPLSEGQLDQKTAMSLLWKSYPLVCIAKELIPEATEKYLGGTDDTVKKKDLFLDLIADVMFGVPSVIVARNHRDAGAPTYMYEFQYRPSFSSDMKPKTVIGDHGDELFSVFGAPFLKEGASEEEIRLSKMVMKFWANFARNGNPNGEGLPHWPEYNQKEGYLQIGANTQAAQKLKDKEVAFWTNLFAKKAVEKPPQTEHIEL

Homo sapiens = organism: Homo sapiens; experiment: Selectivity ratio of IC50 for CE1 in human liver microsomes to IC50 for CE2 in human liver microsomes
Cocaine esterase = target: T2, Cocaine esterase (Homo sapiens, UniProt O00748); experiment: Inhibition of CE2 in human liver microsomes using fluorescein diacetate as substrate preincubated for 10 mins followed by substrate addition measured after 30 mins by LC-UV analysis
T2 sequence (O00748 whole entry): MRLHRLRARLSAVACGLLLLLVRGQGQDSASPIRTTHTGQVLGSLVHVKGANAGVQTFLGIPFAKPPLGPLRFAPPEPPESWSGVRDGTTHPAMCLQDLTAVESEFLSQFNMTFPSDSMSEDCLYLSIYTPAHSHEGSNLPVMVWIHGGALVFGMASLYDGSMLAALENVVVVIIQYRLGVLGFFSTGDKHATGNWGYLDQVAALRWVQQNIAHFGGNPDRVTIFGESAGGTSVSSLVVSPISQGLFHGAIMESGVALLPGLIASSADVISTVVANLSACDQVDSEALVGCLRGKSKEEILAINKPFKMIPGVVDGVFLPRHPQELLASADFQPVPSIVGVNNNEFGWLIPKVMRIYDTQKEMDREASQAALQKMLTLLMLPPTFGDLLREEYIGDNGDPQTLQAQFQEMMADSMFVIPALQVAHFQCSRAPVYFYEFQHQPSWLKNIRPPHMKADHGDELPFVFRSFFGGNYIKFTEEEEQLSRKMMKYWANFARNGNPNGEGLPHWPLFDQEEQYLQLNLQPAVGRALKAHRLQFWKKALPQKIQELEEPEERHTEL

Compound | IC50 (Liver carboxylesterase 1) [µM] | IC50 (Cocaine esterase) [µM] | Ratio IC50 (Homo sapiens)
CC1(C)[C@@H](O)CC[C@]2(C)[C@H]3CC=C4[C@@H]5C[C@@](C)(C(=O)O)CC[C@]5(C)CC[C@@]4(C)[C@]3(C)CC[C@@H]12 | 10.5 | – | –
CCOC(=O)[C@@]1(C)CC[C@]2(C)CC[C@]3(C)C(=CC[C@@H]4[C@@]5(C)CC[C@H](O)C(C)(C)[C@@H]5CC[C@]43C)[C@@H]2C1 | 25.1 | 3.99 | 6.3
CCOC(=O)[C@@]1(C)CC[C@]2(C)CC[C@]3(C)C(=CC(=O)[C@@H]4[C@@]5(C)CC[C@H](OC(=O)CCC(=O)O)C(C)(C)[C@@H]5CC[C@]43C)[C@@H]2C1 | > 100 | 0.66 | 152
CCOC(=O)[C@@]1(C)CC[C@]2(C)CC[C@]3(C)C(=CC(=O)[C@@H]4[C@@]5(C)CC[C@H](O)C(C)(C)[C@@H]5CC[C@]43C)[C@@H]2C1 | 26.3 | 5.7 | 4.6
CC1(C)C(=O)CC[C@]2(C)[C@H]3C(=O)C=C4[C@@H]5C[C@@](C)(C(=O)O)CC[C@]5(C)CC[C@@]4(C)[C@]3(C)CC[C@@H]12 | > 100 | > 100 | –
COC(=O)[C@@]1(C)CC[C@]2(C)CC[C@]3(C)C(=CC(=O)[C@@H]4[C@@]5(C)CC[C@H](O)C(C)(C)[C@@H]5CC[C@]43C)[C@@H]2C1 | 22.4 | 5.61 | 4
CN(C)CCOC(=O)[C@@]1(C)CC[C@]2(C)CC[C@]3(C)C(=CC(=O)[C@@H]4[C@@]5(C)CC[C@H](O)C(C)(C)[C@@H]5CC[C@]43C)[C@@H]2C1 | 9.13 | 3.95 | 2.3
COc1cc2c(cc1CC=C(C)C)C(=O)C[C@@H](c1ccc(O)cc1)O2 [BAVACHININ A] | 3.47 | 4.31 | 0.8
CC(=O)O[C@H]1CC[C@]2(C)[C@H]3C(=O)C=C4[C@@H]5C[C@@](C)(C(=O)O)CC[C@]5(C)CC[C@@]4(C)[C@]3(C)CC[C@H]2C1(C)C [ACETOXOLONE] | 49.9 | – | –
O=[N+]([O-])c1ccc(OP(=O)(O)Oc2ccc([N+](=O)[O-])cc2)cc1 | 0.14 | – | –

More lines, main results first:

IC50 (Liver carboxylesterase 1) [µM] | IC50 (Cocaine esterase) [µM] | Compound | Ratio IC50 (Homo sapiens)
> 100 | > 100 | CC(=O)O[C@H]1CC[C@]2(C)[C@H]3C(=O)C=C4[C@@H]5C[C@@](C)(C#N)CC[C@]5(C)CC[C@@]4(C)[C@]3(C)CC[C@H]2C1(C)C | –
11 | 7.36 | CC(=O)O[C@H]1CC[C@]2(C)[C@H]3C(=O)C=C4[C@@H]5C[C@@](C)(C(N)=O)CC[C@]5(C)CC[C@@]4(C)[C@]3(C)CC[C@H]2C1(C)C | 1.5
23.6 | – | CC1(C)C(=O)CC[C@]2(C)[C@H]3CC=C4[C@@H]5C[C@@](C)(C(=O)O)CC[C@]5(C)CC[C@@]4(C)[C@]3(C)CC[C@@H]12 | –
21 | – | CC1(C)[C@@H](O)CC[C@]2(C)[C@H]3C(=O)C=C4[C@@H]5C[C@@](C)(C(=O)O)CC[C@]5(C)CC[C@@]4(C)[C@]3(C)CC[C@@H]12 [ENOXOLONE] | –
12.3 | 3.42 | CC(=O)O[C@H]1CC[C@]2(C)[C@H]3C(=O)C=C4[C@@H]5C[C@@](C)(C(=O)OCCN(C)C)CC[C@]5(C)CC[C@@]4(C)[C@]3(C)CC[C@H]2C1(C)C | 3.6
20.4 | – | CCOC(=O)[C@@]1(C)CC[C@]2(C)CC[C@]3(C)C(=CC[C@@H]4[C@@]5(C)CC[C@H](OC(=O)CCC(=O)O)C(C)(C)[C@@H]5CC[C@]43C)[C@@H]2C1 | –
6.99 | 14.2 | CC1(C)[C@@H](O)CC[C@]2(C)[C@H]3C(=O)C=C4[C@@H]5C[C@@](C)(C(N)=O)CC[C@]5(C)CC[C@@]4(C)[C@]3(C)CC[C@@H]12 | 0.5
